In the supplement of paper PMC8882468:

Columns and labels:
Test in all cases: CTG-3D luminescence at 96 h relative to day-0 seeding control (ratio to day 0); higher = more growth / less cytotoxicity; PDxO 3D drug screen (set 2), 96 h, CTG-3D normalised to day-0 seeding control.
[1] = tested on: HCI-008 (organoid from a HER2-enriched breast cancer xenograft)
[2] = tested on: HCI-017.E2 (organoid from an ER-positive breast cancer xenograft)
[3] = tested on: HCI-023 (organoid from a triple-negative breast cancer xenograft)
[4] = tested on: HCI-024 (organoid from a breast cancer xenograft)
[5] = tested on: HCI-025 (organoid from a breast cancer xenograft)

CO[C@H]1C[C@@H]2CC[C@@H](C)[C@@](O)(O2)C(=O)C(=O)N2CCCC[C@H]2C(=O)O[C@H]([C@H](C)C[C@@H]2CC[C@@H](OCCO)[C@H](OC)C2)CC(=O)[C@H](C)/C=C(\C)[C@@H](O)[C@@H](OC)C(=O)[C@H](C)C[C@H](C)/C=C/C=C/C=C/1C [everolimus]
CTG-3D luminescence at 96 h
Conditions	12.5 pM	0.00025 µM	0.005 µM	0.1 µM	1 µM	10 µM	100 µM	625 fM
[1], days in culture: 325	0.998	1.62	1.03	2.85	2.2	1.15	-0.00335	1.28
[1], days in culture: 340	1.1	1.26	1.65	0.457	1.04	–	-0.000653	1.09
[1], days in culture: 354	1.49	0.714	2.05	0.859	0.973	0.697	-0.00248	0.841
[1], days in culture: 382	1.54	1.42	1.04	1.1	0.451	0.406	-0.000828	1.26
[2], days in culture: 85	2.06	1.86	1.32	0.959	0.595	0.493	0.00146	2.29
[3], days in culture: 223	2.04	1.82	1.17	1.19	0.991	1.28	-0.00123	1.43
[3], days in culture: 238	1.22	1.01	1	1.23	1.61	0.915	-0.00183	1.32
[3], days in culture: 252	1.97	1.75	1.51	1.44	1.55	1.91	-0.00273	1.89
[4], days in culture: 202	0.906	1.18	0.737	1.7	1.12	1.74	0.00395	1.12
[4], days in culture: 231	0.783	1.17	0.961	1.01	0.971	1.11	0.000185	0.943
[4], days in culture: 254	2.18	0.836	1.02	1.31	1.11	1.02	0.00153	2.4
[5], days in culture: 175	1.08	0.994	0.949	1.13	1.44	1.35	0.00118	1.41
[5], days in culture: 189	1.44	1.22	1.34	1.21	0.974	0.917	0.000135	2.02
[5], days in culture: 212	1.18	2.27	2.08	0.487	0.322	0.167	-0.000795	1.43
[5], days in culture: 224	1.8	2.05	1.58	0.608	0.581	0.366	-0.00196	1.74

[2]
Conditions	CTG-3D luminescence at 96 h
12.5 pM	1.59
0.00025 µM	1.63
0.005 µM	1.8
0.1 µM	1.25
1 µM	0.822
10 µM	0.73
100 µM	0.00266
625 fM	1.99

COc1cccc2c1C(=O)c1c(O)c3c(c(O)c1C2=O)C[C@@](O)(C(=O)CO)C[C@@H]3O[C@H]1C[C@H](N)[C@@H](O)[C@H](C)O1 [epirubicin]
CTG-3D luminescence at 96 h
Conditions	12.5 pM	0.00025 µM	0.005 µM	0.1 µM	1 µM	10 µM	100 µM	625 fM
[1], days in culture: 325	1.57	2.58	1.67	1.91	0.784	0.192	-0.00523	1.81
[1], days in culture: 340	1.38	1.84	1.52	1	0.612	–	-0.0051	1.34
[1], days in culture: 354	1.58	0.918	1.45	0.732	0.524	0.2	0.00146	1.46
[1], days in culture: 382	1.97	1.33	1.3	1.6	0.222	0.161	-0.000657	1.49
[2], days in culture: 85	2.09	2.02	1.7	2.1	0.743	1.02	0.0107	1.92
[3], days in culture: 223	1.88	1.76	1.22	1.3	0.154	0.0393	-0.00401	2.21
[3], days in culture: 238	1.44	1.08	0.842	0.9	0.391	0.0393	-0.00422	1.61
[3], days in culture: 252	2.29	2.32	1.59	1.68	0.516	0.0524	-0.00328	1.99
[4], days in culture: 202	1.44	1.41	0.402	0.943	0.189	0.201	0.0124	0.718
[4], days in culture: 231	1.26	1.41	1.2	0.91	0.331	0.141	0.0266	1.79
[4], days in culture: 254	1.76	2	0.967	0.838	0.196	0.165	0.0227	1.93
[5], days in culture: 175	1.67	1.16	0.961	0.846	0.14	0.0198	-0.00458	1.31
[5], days in culture: 189	2.65	2.38	1.58	1.14	0.108	0.00904	-0.0017	2.54
[5], days in culture: 212	1.54	2.81	3.5	1.27	0.125	0.0162	-0.000834	1.07
[5], days in culture: 224	1.88	2.11	1.45	0.576	0.0783	0.0108	-0.00319	1.79

[2]
Conditions	CTG-3D luminescence at 96 h
12.5 pM	2.04
0.00025 µM	2.99
0.005 µM	2.22
0.1 µM	2.13
1 µM	0.562
10 µM	1.07
100 µM	0.00216
625 fM	2.33
